For five compounds, IC50 results are on record in patent publication US10059687B2, “Histone demethylase inhibitors” (CELGENE QUANTICEL RESEARCH, INC., priority 2015, dated 2018).

One assay addresses Jarid1B (Homo sapiens (Human), UniProt Q9UGL1). Description: In vitro enzyme inhibition assay for Jarid1B activity (TR-FRET). In kind it is biochemical.
A further assay addresses JMJD2C (Homo sapiens (Human), UniProt Q9H3R0). As to the kind of experiment: In vitro enzyme inhibition assay for JMJD2C activity (TR-FRET). In kind it is biochemical. The procedure, abridged:
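Baculovirus-expressed JMJD2C (aa 2-372, 0.3 nM) was reacted for 30 min at RT with 300 nM biotin-H3K9me3 peptide and 2 μM α-ketoglutarate in HEPES pH 7.3 buffer containing Fe(II), ascorbate and TCEP. After EDTA stop, H3K9me2 product was detected by TR-FRET (Eu-anti-H3K9me2/streptavidin-APC). IC50 was fitted from the 665/615 ratio of 11-point dilutions.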
In general terms: In TR-FRET formats the signal depends on donor and acceptor labels being close together.

For another assay, the system named is Jurkat cells. Description: Jurkat (T-ALL) cell line proliferation assay (Cell-MTS Assay). The settings on record: Homo sapiens, 168 hr incubation, cell gives A/B enantiomer values, read-out: Cellular IC50. The assay is classed as cell-based. An excerpt: The Jurkat (T-ALL) cell line proliferation assay (Cell-MTS Assay) is a colorimetric cellular assay to assess the ability of KDM small molecule inhibitors to effect the proliferation of the established human acute T cell leukemia cancer cell line Jurkat.
This Cell-MTS assay is a 7-day plate-based colorimetric assay which quantifies the amount of newly generated NADH in the presence and absence of test compound. These NADH levels are used as a proxy for the quantification of cancer cell proliferation.
The established cancer cell line Jurkat with a verified p53 mutation were purchased from American Type Culture Collection (ATCC) and routinely passaged according to ATCC published protocols. For routine assay these cells were seeded at a density of 10,000 cells per 96-well. 24 hr after plating, cells received an 11-point dilution of test compound with final concentration ranges from 10 μM to 0.15 nM. Cells were incubated in the presence of compound for 168 hr at 37° C., 5% CO2. At the end of this compound incubation period, 80 μl of media is removed and 20 μL of CellTiter 96® AQueous Non-Radioactive Cell Proliferation Assay solution (Promega) is added. The cells were incubated until the OD490 reached >0.6. IC50 values are calculated using the IDBS XLfit software package and include background subtracted OD490 values and normalization to DMSO controls. Cellular proliferation IC50 values are uploaded and archived using the Chem Biography Platform.

For assay [1], the system named is esophageal squamous cell carcinoma KYSE-150 cells. As to the kind of experiment: Cellular IC50 in KYSE-150 cells. In kind it is cell-based. The settings on record: Homo sapiens, one class given per A and B pair. An excerpt:
Table 7 provides IC50 values of various compounds disclosed herein, tested in cellular human esophageal squamous cell carcinoma KYSE-150 cells: […]

The next assay concerns the target JMJD3 (Homo sapiens, UniProt O15054). As to the kind of experiment: In vitro enzyme inhibition assay for JMJD3 activity (TR-FRET). The assay is classed as biochemical. The procedure, abridged: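 Baculovirus-expressed JMJD3 (AA1043-end), 5 nM, with 250 nM biotin-H3K27me3 peptide and 0.4–2 μM α-ketoglutarate in 50 mM HEPES pH 7.3, 50 μM ascorbate, 5 μM Fe(II); 30 min at RT. EDTA-stopped; H3K27me2 product detected by TR-FRET (Eu-antibody/streptavidin-APC), 665/615 ratio fitted to 11-point IC50.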

Setting [2] is: Table 4, cell gives A/B enantiomer values.
The mark [3] stands for this setting: Table 5, one class given per A and B pair.

Broadly, the IC50 is the midpoint of a concentration-inhibition curve.

Chain of JMJD2C (Q9H3R0 2-372): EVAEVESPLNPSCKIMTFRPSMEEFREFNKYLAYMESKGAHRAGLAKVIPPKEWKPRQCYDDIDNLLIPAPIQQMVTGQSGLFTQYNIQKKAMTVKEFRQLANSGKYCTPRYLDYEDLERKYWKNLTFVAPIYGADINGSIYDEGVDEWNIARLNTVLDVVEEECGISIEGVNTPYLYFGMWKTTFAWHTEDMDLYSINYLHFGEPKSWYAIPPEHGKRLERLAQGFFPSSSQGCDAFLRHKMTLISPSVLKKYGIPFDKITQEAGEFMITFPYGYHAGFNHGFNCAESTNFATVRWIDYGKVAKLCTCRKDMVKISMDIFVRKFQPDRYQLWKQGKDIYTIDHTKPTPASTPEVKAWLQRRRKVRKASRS
Chain of Jarid1B (Q9UGL1 whole entry, species assumed): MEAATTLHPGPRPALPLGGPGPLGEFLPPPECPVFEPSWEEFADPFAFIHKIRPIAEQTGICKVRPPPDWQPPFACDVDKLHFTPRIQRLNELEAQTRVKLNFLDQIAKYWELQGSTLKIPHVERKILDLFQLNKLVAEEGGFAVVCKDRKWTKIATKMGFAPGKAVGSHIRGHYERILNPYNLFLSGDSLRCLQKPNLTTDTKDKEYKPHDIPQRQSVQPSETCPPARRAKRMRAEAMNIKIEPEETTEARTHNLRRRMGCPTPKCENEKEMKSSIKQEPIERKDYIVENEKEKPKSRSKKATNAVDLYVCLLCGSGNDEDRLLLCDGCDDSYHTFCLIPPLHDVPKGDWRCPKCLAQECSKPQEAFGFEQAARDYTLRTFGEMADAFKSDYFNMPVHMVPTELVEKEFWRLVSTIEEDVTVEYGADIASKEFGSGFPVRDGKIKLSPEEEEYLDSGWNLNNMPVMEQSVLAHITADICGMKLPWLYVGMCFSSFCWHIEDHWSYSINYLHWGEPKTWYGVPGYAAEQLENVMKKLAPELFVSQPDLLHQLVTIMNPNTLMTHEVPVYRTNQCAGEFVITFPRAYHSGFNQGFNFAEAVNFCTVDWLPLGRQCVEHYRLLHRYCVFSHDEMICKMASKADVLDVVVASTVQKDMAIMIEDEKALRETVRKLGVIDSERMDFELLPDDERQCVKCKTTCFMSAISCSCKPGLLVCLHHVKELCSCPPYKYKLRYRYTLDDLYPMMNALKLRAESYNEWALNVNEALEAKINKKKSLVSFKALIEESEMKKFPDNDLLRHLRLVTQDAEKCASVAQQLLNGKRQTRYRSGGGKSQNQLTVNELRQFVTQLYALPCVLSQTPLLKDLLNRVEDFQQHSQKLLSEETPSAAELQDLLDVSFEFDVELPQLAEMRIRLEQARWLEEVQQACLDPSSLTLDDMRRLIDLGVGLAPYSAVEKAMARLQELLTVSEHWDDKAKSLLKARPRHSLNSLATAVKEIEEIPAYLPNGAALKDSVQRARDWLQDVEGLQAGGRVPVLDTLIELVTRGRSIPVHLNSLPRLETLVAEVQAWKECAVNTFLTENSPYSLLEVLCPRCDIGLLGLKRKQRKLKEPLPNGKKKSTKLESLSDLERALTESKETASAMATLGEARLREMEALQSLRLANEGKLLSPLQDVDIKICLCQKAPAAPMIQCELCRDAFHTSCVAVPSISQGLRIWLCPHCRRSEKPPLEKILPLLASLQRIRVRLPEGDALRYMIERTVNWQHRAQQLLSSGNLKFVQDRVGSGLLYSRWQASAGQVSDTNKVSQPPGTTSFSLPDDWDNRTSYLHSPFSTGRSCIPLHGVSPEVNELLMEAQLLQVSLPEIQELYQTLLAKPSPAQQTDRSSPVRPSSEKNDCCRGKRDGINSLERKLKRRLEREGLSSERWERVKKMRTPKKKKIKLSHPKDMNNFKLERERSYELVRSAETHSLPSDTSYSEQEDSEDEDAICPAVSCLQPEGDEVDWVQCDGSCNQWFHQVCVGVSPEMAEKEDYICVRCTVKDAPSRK

As for `Cc1ccc(N(C)c2ccc3c(c2)CCN[C@@H]3CNc2cnccc2C(=O)O)cc1` [Example 1A, 3-[({(1S)-6-[methyl(4-methylphenyl)amino]-1,2,3,4-tetrahydroisoquinolyl}methyl)amino]pyridine-4-carboxylic acid], the IC50 is no more than 0.1 µM on Jarid1B (setting [2]); no more than 0.1 µM on Jarid1B (setting [3]); 0.1 to 1 µM at JMJD2C (setting [2]); 0.1 to 1 µM against JMJD2C (setting [3]); no more than 0.1 µM in the assay on Jurkat cells; 1 to 10 µM in assay [1].

For `Cc1cc(OCC(F)(F)F)ccc1-c1ccc2c(c1)CCN[C@@H]2CNc1cnccc1C(=O)O` [Example 2A, 3-[({(1S)-6-[2-methyl-4-(2,2,2-trifluoro-ethoxy)phenyl]-1,2,3,4-tetrahydro-isoquinolyl}methyl)amino]pyridine-4-carboxylic acid], the IC50 against Jarid1B (setting [2]) was no more than 0.1 µM; against Jarid1B (setting [3]), no more than 0.1 µM; at JMJD2C (setting [2]), 1 to 10 µM; at JMJD2C (setting [3]) it was 1 to 10 µM; against JMJD3 (setting [2]), 1 to 10 µM; against JMJD3 (setting [3]) it was 1 to 10 µM. For the same compound, the values for the IC50 (in the assay with Jurkat cells; in assay [1]) were 0.1 to 1 µM and greater than 10 µM, respectively.

Regarding `Cc1cc(OCC(F)(F)F)ccc1-c1ccc2c(c1)CCN[C@H]2CNc1cnccc1C(=O)O` [Example 2B, 3-[({(1R)-6-[2-methyl-4-(2,2,2-trifluoroethoxy)phenyl]-1,2,3,4-tetrahydroisoquinolyl)methyl)amino]pyridine-4-carboxylic acid], the IC50 on Jarid1B (setting [2]) is no more than 0.1 µM; at Jarid1B (setting [3]), no more than 0.1 µM; at JMJD2C (setting [2]) it was 1 to 10 µM; on JMJD2C (setting [3]) it was 1 to 10 µM; at JMJD3 (setting [2]) it was 1 to 10 µM; against JMJD3 (setting [3]), 1 to 10 µM. The 50% inhibitory concentration (IC50) with Jurkat cells was 0.1 to 1 µM; in assay [1], greater than 10 µM.

Take `CCc1ccccc1-c1ccc2c(c1)CN(C)[C@H]2CNc1cnccc1C(=O)O` [Example 22A, (R)-3-(((5-(2-ethylphenyl)-2-methyl-isoindolin-1-yl)methyl)amino) isonicotinic acid]: the concentration for half-maximal inhibition (IC50) on Jarid1B (setting [3]) was no more than 0.1 µM; against JMJD2C (setting [3]) it was 0.1 to 1 µM; on JMJD3 (setting [3]), 1 to 10 µM; in assay [1], no more than 0.1 µM.

Take `CCc1ccccc1-c1ccc2c(c1)CN(C)[C@@H]2CNc1cnccc1C(=O)O` [Example 22B, (S)-3-(((5-(2-ethylphenyl)-2-methyl-isoindolin-1-yl)methyl)amino) isonicotinic acid]: the IC50 against Jarid1B (setting [3]) was no more than 0.1 µM; at JMJD2C (setting [3]) it was 0.1 to 1 µM; against JMJD3 (setting [3]), 1 to 10 µM; in assay [1], no more than 0.1 µM.
